The values that follow are results of earlier work, collected in patent US20040198708A1, “Formulations of mometasone and a bronchodilator for pulmonary administration” (priority 2000, published 2004).

In series [1] the test system is HPA axis. The note with it: humans, inhaled, dosages of up to 800 mcg daily; Bernstein et al. (1999).
The subject of series [2] is patients with mild to moderate persistent asthma. The note with it: inhaled once daily, Nayak et al. (2000).
For series [3], the system named is HPA axis. The note with it: mice, inhaled; Chapman et al. (1998).

Consider `C[C@@H]1C[C@H]2[C@@H]3CCC4=CC(=O)C=C[C@]4(C)[C@@]3(Cl)[C@@H](O)C[C@]2(C)[C@@]1(OC(=O)c1ccco1)C(=O)CCl` [mometasone furoate, (11β,16α)-9,21-dichloro-17-[(2-furanylcarbonyl)oxy]-11-hydroxy-16-methylpregna-1,4-diene-3,20-dione], for which, in the series on HPA axis [1], the HPA axis suppression entry is “did not cause HPA axis suppression”. Besides, in series [2], the “Effectiveness in treating asthma” value is recorded as “effective”. For the same compound, the “Suppression of the HPA axis” value with HPA axis [3] was “has not been reported”.
